Converted amounts (≈) assume the structure as drawn.

The test has as its system Crotalus adamanteus. In words: Inhibition of Crotalus adamanteus venom PLA2.

`CCCCCCCCCCCCCCCCCCCC[C@@H](O)C(=O)N[C@@H](CO)[C@H](O)[C@H](O)CCCCCCCCCC(C)C` showed an ED50 of 100 µg/mL (≈ 159 µM).

Values taken from ChEMBL document CHEMBL1142629, “New lipids from the tunicate Cystodytes cf. dellechiajei, as PLA2 inhibitors” (J Nat Prod, 2000).
